Several values for one entry are separate records, joined by “and”; a condition that tells them apart may be missing. Equal values may be shown once.
System: GEMS receptors with CBPA11 (BclXL–LD3 and BclXLhigh variants), STAT3-driven SEAP in HEK293T cells
Test: GEMS SEAP reporter assay, CBPA11 (BclXLhigh, LD3-v and BclXL-v variants) with A-1155463
Assay type: cell-based
Set-up: key to Raw data (SEAP) / SEAP, replicate values / Raw data of Figure 5b / Raw data Figure 5e / Raw data of Independent repeat of CBPA11-v1 vs CBPA11-v1-LD3v3 / Raw data of Independent repeat of CBPA11-v3 vs CBPA11-v3-LD3v3 / Raw data of Figure 5b, CBPA11-v1-LD3v3 (SEAP reporter raw value, single replicate) / Raw data of Figure 5b, CBPA11-v1 (SEAP reporter raw value, single replicate): SEAP activity in U/L in culture supernatant
Excerpt: To rationally design a CBP responding to a chemical input, we used BclXL as the druglow receptor, LD3 as the designed binder and a designed BclXL variant as the drughigh receptor (referred to as BclXLhigh) to construct a CBP responsive to BclXL inhibitors (Fig. 4a). To design BclXLhigh, we used a multistate design computational protocol described elsewhere[26] […] Thus, BclXLhigh-v(1–3) were chosen as the functional drughigh receptors, resulting in three A-1155463-controlled CBPs (referred to as CBPA11-v(1–3)) (Fig. 4c–e).
HEK293T cells were seeded in a 96-well plate 24 h before transfection. The transfection mix in each well consisted of 3 ng of constitutive human CMV promoter driven mammalian STAT3 expression vector (PhCMV-STAT3-pA), 30 ng of STAT3-induced reporter expression (OStat3-PhCMVmin-SEAP-pA) and 50 ng of expression vectors for each GEMS receptor chain (PSV40-IgK-(drughigh receptor)-EpoRm-IL-6RBm-pA and PSV40-IgK-(druglow receptor-GGGGSX3-LD3)-EpoRm-IL-6RBm-pA). For the specific drughigh receptor and druglow receptor used in the different cellular assays, they are indicated as wild type or with mutations. Then, plasmid DNA was mixed with 50 μl opti-MEM (Thermo Fisher) and 600 ng of polyethyleneimine (Polysciences, catalog no. 24765-1). For drug treatment experiments, drugs were added 12 h post-transfection and incubated with cells for 24 h before the SEAP reporter detection assay.
SEAP activity (U l^−1) in cell culture supernatants was quantified by kinetic measurements at 405 nm (1 minute per measurement for 30 cycles) of absorbance increase due to phosphatase-mediated hydrolysis of para-nitrophenyl phosphate (pNPP).
Binding affinities of SPR drug competition assays were calculated using three-parameter nonlinear regression in GraphPad Prism (v.8.3.0). Representative data of cell assays are presented as individual values and mean values (bars). n = 3 refers to biological replicates. All IC50 or EC50 values of cell assays reported were calculated using four-parameter nonlinear regression ± s.d. Bandpass features of cutoff concentrations and Bandwidth90% were estimated based on the curve fitted using bell-shaped curve nonlinear regression in GraphPad Prism (v.8.3.0). […]
Supplementary Figure 4: Design, screening and validation of BclXLhigh variants. a) Screening of BclXLhigh variants in the GEMS platform. […]
Dissociation constant measurement of BclXLhigh-v(1-3) and LD3. Equilibrium curves are fitted using […]
BclXLhigh-v1 (purple), BclXLhigh-v2 (blue), […]
a) Bcl2high-based bandpass filter designs were developed and to respond to different concentrations of […]
corresponding inhibitor. c) Screening of Bcl2high-based bandpass filter variants in the GEMS platform.
The designed binder LD3 was fused to the druglow-receptor (PSV40-IgK-Bcl2-LD3-EpoRm-IL-6RBm-pA) in one EpoR chain and Bcl2high variants with the insensitive Bcl2 (iBcl2) as control in the other EpoR chain (PSV40-IgK-Bcl2high-EpoRm-IL-6RBm-pA). HEK293T cells were transfected with indicated […]
the mean of six biological replicates ± s.d., overlaid with a scatter dot plot of the original data points.
(1 picture or pasted object on this page, not shown here)
Supplementary Figure 6: Binding affinities and drug resistances of Bcl2high-v(2,4,5) assessed by […]
a) Measurement of dissociation constants for Bcl2high-v(2,4,5) and LD3 interactions. Equilibrium curves […]
Bcl2high-v(2,4,5) measured by SPR. 5 μM of Bcl2 or indicated variants were mixed with 10 μM of […]
Bcl2high-v2 (red), Bcl2high-v4
Supplementary Figure 7: Screening of LD3 variants in CBPA11-v(1-3) and raw data of CBPA11-v(1,3) with LD3-v3 variant. a-c) Screening of LD3 and LD3-v(1-3) variants in complex with BclXL for more sensitive CBPA11-v1 (a), CBPA11-v2 (b), CBPA11-v3 (c) in the GEMS platform. The LD3 variants replaced the role of LD3 (PSV40-IgK-BclXL-LD3-v(1-3)-EpoRm-IL-6RBm-pA) in one EpoR chain and BclXLhigh-v(1-3) in the other EpoR chain (PSV40-IgK-BclXLhigh-V(1-3)-EpoRm-IL-6RBm-pA). HEK293T cells were transfected with […]

[1] = CBPA11-v1-LD3v3, A-1155463 1 nM
[2] = CBPA11-v1-LD3v3, A-1155463 3.18 nM
[3] = CBPA11-v1-LD3v3, A-1155463 10 nM
[4] = CBPA11-v1-LD3v3, A-1155463 31.8 nM
[5] = CBPA11-v1-LD3v3, A-1155463 100 nM
[6] = CBPA11-v1-LD3v3, A-1155463 318 nM
[7] = CBPA11-v1-LD3v3, A-1155463 1000 nM
[8] = CBPA11-v1-LD3v3, A-1155463 3180 nM
[9] = CBPA11-v1-LD3v3, A-1155463 10000 nM

CN(C)CC#Cc1ccc(OCCCc2sc(N3CCc4cccc(C(=O)Nc5nc6ccccc6s5)c4C3)nc2C(=O)O)c(F)c1 [A-1155463]
Normalized data of Figure 5b [1]: 12.3584 and 11.9384 and 10.5903 | Raw data of Figure 5b [1]: 17.44 and 15.4815 and 15.2319 | Raw data of Independent repeat of CBPA11-v1 vs CBPA11-v1-LD3v3 [1]: 31.801 and 28.5095 and 29.309 | Raw data of Independent repeat of CBPA11-v1 vs CBPA11-v1-LD3v3 (CBPA11-v1-LD3v3, A-1155463 3.16 nM): 34.9091 and 28.121 and 21.957 | Normalized data of Figure 5b [2]: 13.5394 and 12.5226 and 10.9319 | Raw data of Figure 5b [2]: 19.1065 and 16.239 and 15.7232 | Normalized data of Figure 5b [3]: 25.1514 and 28.7722 and 29.2973 | Raw data of Figure 5b [3]: 35.4931 and 37.3111 and 42.1378 | Raw data of Independent repeat of CBPA11-v1 vs CBPA11-v1-LD3v3 [3]: 179.972 and 131.844 and 140.391 | Raw data of Independent repeat of CBPA11-v1 vs CBPA11-v1-LD3v3 (CBPA11-v1-LD3v3, A-1155463 31.6 nM): 226.429 and 187.26 and 191.409 | Normalized data of Figure 5b [4]: 78.9386 and 88.4215 and 71.2191 | Raw data of Figure 5b [4]: 111.396 and 114.663 and 102.433 | Normalized data of Figure 5b [5]: 100 | Raw data of Figure 5b [5]: 141.118 and 129.678 and 143.828 | Raw data of Independent repeat of CBPA11-v1 vs CBPA11-v1-LD3v3 [5]: 335.207 and 287.921 and 227.786 | Raw data of Independent repeat of CBPA11-v1 vs CBPA11-v1-LD3v3 (CBPA11-v1-LD3v3, A-1155463 316 nM): 270.923 and 196.943 and 173.263 | Normalized data of Figure 5b [6]: 62.5942 and 62.3431 and 56.6992 | Raw data of Figure 5b [6]: 88.3315 and 80.8452 and 81.5497 | Normalized data of Figure 5b [7]: 29.9151 and 30.048 and 29.0586 | Raw data of Figure 5b [7]: 42.2154 and 38.9656 and 41.7945 | Raw data of Independent repeat of CBPA11-v1 vs CBPA11-v1-LD3v3 [7]: 123.233 and 79.9582 and 97.1187 | Raw data of Independent repeat of CBPA11-v1 vs CBPA11-v1-LD3v3 (CBPA11-v1-LD3v3, A-1155463 3160 nM): 45.1078 and 32.2032 and 26.5323 | Normalized data of Figure 5b [8]: 11.3098 and 14.9107 and 12.4987 | Raw data of Figure 5b [8]: 15.9601 and 19.3359 and 17.9766 | Normalized data of Figure 5b [9]: 8.9981 and 9.291 and 5.288 | Raw data of Figure 5b [9]: 12.6979 and 12.0483 and 7.606 | Raw data of Independent repeat of CBPA11-v1 vs CBPA11-v1-LD3v3 [9]: 23.0011 and 17.3094 and 15.2043 | Raw data of Independent repeat of CBPA11-v3 vs CBPA11-v3-LD3v3 (CBPA11-v3, A-1155463 0.01 nM): 26.5862 and 23.5891 and 24.9373 | Normalized data Figure 5e (CBPA11-v3, A-1155463 1 nM): 14.7288 and 13.7384 and 12.9495 | Normalized data of Figure 5b (CBPA11-v3, A-1155463 1 nM): 2.438 and 2.3416 and 2.8403 | Raw data of Figure 5b (CBPA11-v3, A-1155463 1 nM): 13.0926 and 12.3286 and 14.9355 | Raw data of Independent repeat of CBPA11-v3 vs CBPA11-v3-LD3v3 (CBPA11-v3, A-1155463 1 nM): 77.8998 and 72.2772 and 68.2722 | Raw data of Independent repeat of CBPA11-v3 vs CBPA11-v3-LD3v3 (CBPA11-v3, A-1155463 3.16 nM): 101.26 and 74.5174 and 69.017 | Normalized data Figure 5e (CBPA11-v3, A-1155463 3.18 nM): 19.1455 and 14.1642 and 13.0908 | Normalized data Figure 5e (CBPA11-v3, A-1155463 10 nM): 52.8574 and 45.1451 and 43.5321 | Normalized data of Figure 5b (CBPA11-v3, A-1155463 10 nM): 22.9212 and 24.7467 and 27.0042 | Raw data of Figure 5b (CBPA11-v3, A-1155463 10 nM): 123.11 and 130.292 and 142 | Raw data of Independent repeat of CBPA11-v3 vs CBPA11-v3-LD3v3 (CBPA11-v3, A-1155463 10 nM): 279.56 and 237.506 and 229.509 | Raw data of Independent repeat of CBPA11-v3 vs CBPA11-v3-LD3v3 (CBPA11-v3, A-1155463 31.6 nM): 420.603 and 418.534 and 369.593 | Normalized data Figure 5e (CBPA11-v3, A-1155463 31.8 nM): 79.525 and 79.5547 and 70.1024 | Normalized data of Figure 5b (CBPA11-v3, A-1155463 31.8 nM): 52.5804 and 56.6221 and 62.0483 | Raw data of Figure 5b (CBPA11-v3, A-1155463 31.8 nM): 282.41 and 298.117 and 326.277 | Normalized data Figure 5e (CBPA11-v3, A-1155463 100 nM): 93.7695 and 93.9386 and 100 | Normalized data of Figure 5b (CBPA11-v3, A-1155463 100 nM): 84.9271 and 84.8554 and 85.7543 | Raw data of Figure 5b (CBPA11-v3, A-1155463 100 nM): 456.144 and 446.765 and 450.933 | Normalized data Figure 5e (CBPA11-v3, A-1155463 318 nM): 100 and 99.7629 | Normalized data of Figure 5b (CBPA11-v3, A-1155463 318 nM): 100 | Raw data of Figure 5b (CBPA11-v3, A-1155463 318 nM): 537.1 and 526.502 and 525.843

— publication PMC11062894, “Protein-based bandpass filters for controlling cellular signaling with chemical inputs” (Nature Chemical Biology, 2023)
